Source: patent US20140378525A1, “MATERIALS AND METHODS FOR TREATING PTEN MUTATED OR DEFICIENT CANCER” (priority 2011, published 2014)

Tests used:
Assay in all cases: Drug sensitivity of breast cancer cell line to lapatinib
Assay type in all cases: cell-based, human
[1] = tested on: VP229; settings: VP229, ERBB2 amplified
Source text: (§1) To complement this functional viability profiling, we also characterised the breast tumor panel using transcript microarrays, array-based comparative genomic hybridisation (aCGH), drug sensitivity for a small number of targeted agents, as well as gene mutation data.

[2] = tested on: JIMT1; settings: JIMT1, ERBB2 amplified
Source text: as §1

[3] = tested on: HCC202; settings: HCC202, ERBB2 amplified
Source text: as §1

[4] = tested on: MDAMB453; settings: MDAMB453, ERBB2 amplified
Source text: as §1

[5] = tested on: SKBR3; settings: SKBR3, ERBB2 amplified
Source text: as §1

[6] = tested on: BT474; settings: BT474, ERBB2 amplified
Source text: as §1

For CS(=O)(=O)CCNCc1ccc(-c2ccc3ncnc(Nc4ccc(OCc5cccc(F)c5)c(Cl)c4)c3c2)o1 [lapatinib], the “sensitivity to lapatinib treatment” value [1] was “resistant”, the “sensitivity to lapatinib treatment” value [2] was “resistant” and the “sensitivity to lapatinib treatment” value [3] was “sensitive”. The “sensitivity to lapatinib treatment” value [4] was “resistant”, the “sensitivity to lapatinib treatment” value [5] was “sensitive” and the “sensitivity to lapatinib treatment” value [6] was “sensitive”.
